According to the supplement of paper PMC8960247:
Where a name gives a salt, the structure may show the parent alone. ± gives the standard error.

Assays:
621-102 (TSC2-deficient) = experiment: relative viability vs DMSO; higher = less cytotoxic; conditions: serum: 10% FBS, 72 h
621-103 (TSC2-rescued) = experiment: as above; conditions: serum: 10% FBS, 72 h
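Note: immortalized renal angiomyolipoma cells stably carrying empty vector or TSC2, dosed in 384-well plates in DMEM, viability normalized to vehicle-treated wells within each plate.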

Compound	relative viability (621-102 (TSC2-deficient); 0.0001 µM)	relative viability (621-102 (TSC2-deficient); 0.001 µM)	relative viability (621-102 (TSC2-deficient); 0.01 µM)	relative viability (621-102 (TSC2-deficient); 0.1 µM)	relative viability (621-102 (TSC2-deficient); 1 µM)	relative viability (621-102 (TSC2-deficient); 10 µM)	relative viability (621-103 (TSC2-rescued); 0.0001 µM)	relative viability (621-103 (TSC2-rescued); 0.001 µM)	relative viability (621-103 (TSC2-rescued); 0.01 µM)	relative viability (621-103 (TSC2-rescued); 0.1 µM)	relative viability (621-103 (TSC2-rescued); 1 µM)	relative viability (621-103 (TSC2-rescued); 10 µM)
C[C@]12CC[C@H]3[C@@H](CC[C@@]45O[C@@H]4C(O)=C(C#N)C[C@]35C)[C@@H]1CC[C@@H]2O [Trilostane]	104 ± 4.1%	94 ± 6%	93.7 ± 0.94%	101 ± 2.1%	98.3 ± 5.8%	99.2 ± 5%	102 ± 1.8%	106.6 ± 0.25%	106.2 ± 0.28%	101 ± 2.7%	102.8 ± 0.34%	100 ± 1.9%
COc1cc2c(Oc3ccc(NC(=O)C4(C(=O)Nc5ccc(F)cc5)CC4)cc3F)ccnc2cc1OCCCN1CCOCC1	108 ± 7.4%	111 ± 6.2%	98 ± 5.1%	102 ± 5.8%	84.55 ± 0.78%	2.81 ± 0.28%	97.08 ± 0.89%	97.1 ± 1.1%	93.9 ± 3.7%	91.72 ± 0.35%	69.1 ± 1.5%	1.1 ± 0.14%
O=C1NC(=O)/C(=C/c2ccc3nccc(-c4ccncc4)c3c2)S1	101 ± 3.6%	106.8 ± 0.82%	105 ± 5.2%	97.8 ± 5.1%	80.5 ± 5%	32.8 ± 1.8%	94.69 ± 0.22%	101.8 ± 0.76%	107 ± 2%	101.5 ± 0.46%	93.69 ± 0.33%	33.1 ± 0.64%
CCCCCCCCCCCCCCCC(=O)OC[C@H](O)[C@H]1OC(=O)C(O)=C1O [L-Ascorbyl 6-palmitate]	122 ± 5.9%	111 ± 2.5%	107 ± 3.4%	107 ± 1.8%	106.5 ± 0.81%	111 ± 2.4%	99.8 ± 2.5%	105.8 ± 0.61%	96.5 ± 3.2%	100 ± 2.4%	97.4 ± 2.1%	94.9 ± 5%
Cc1[nH]c(=O)c(C#N)cc1-c1ccncc1 [Milrinone (Primacor)]	109 ± 3.1%	114 ± 2.9%	110 ± 2%	103.33 ± 0.049%	107 ± 3.9%	107 ± 1.4%	95.74 ± 0.27%	91.11 ± 0.53%	95.5 ± 9.2%	91.8 ± 3.8%	91.27 ± 0.77%	89.3 ± 2.9%
CCc1c2c(nc3ccc(OC(=O)N4CCC(N5CCCCC5)CC4)cc13)-c1cc3c(c(=O)n1C2)COC(=O)[C@]3(O)CC [Irinotecan HCl Trihydrate]	94 ± 3.9%	98.4 ± 3%	97.8 ± 1.5%	108 ± 4.1%	99.4 ± 3%	63.351 ± 0.053%	107 ± 5.2%	107 ± 3.3%	105 ± 1.8%	101 ± 5.9%	99.3 ± 1.9%	57.5 ± 2.7%
CCCc1nc(C)c2c(=O)nc(-c3cc(S(=O)(=O)N4CCN(CC)CC4)ccc3OCC)[nH]n12 [Vardenafil (Vivanza)]	103 ± 2.4%	104 ± 1.2%	104 ± 3.8%	104.8 ± 0.49%	96.25 ± 0.9%	97.2 ± 1.1%	101 ± 2.4%	103.3 ± 0.7%	105 ± 1.5%	104 ± 1.1%	98.5 ± 4.4%	98.6 ± 1.7%
OC(CN1CCN(c2cccc(Cl)c2)CC1)C(c1ccccc1)c1ccccc1 (stereo not drawn)	102 ± 4.7%	93.4 ± 2.8%	104 ± 2.5%	95.9 ± 2.9%	102 ± 2.5%	89.25 ± 0.44%	83.9 ± 10%	85.7 ± 8.3%	95.1 ± 7.2%	98.58 ± 0.47%	83.3 ± 4.9%	79.1 ± 4.4%
C=CC(=O)Nc1cccc(Oc2nc(Nc3ccc(N4CCN(C)CC4)cc3OC)ncc2Cl)c1 [WZ4002]	110 ± 1.7%	100 ± 6.1%	104 ± 4.2%	101 ± 3.6%	99 ± 2%	51.6 ± 2%	100.2 ± 0.22%	101 ± 1.6%	100.1 ± 0.83%	101.6 ± 0.99%	101 ± 2.2%	32.5 ± 1.5%
NC(=O)N1c2ccccc2C=Cc2ccccc21 [Carbamazepine (Carbatrol)]	93.1 ± 3.9%	96.7 ± 3.8%	93.3 ± 3%	101.1 ± 0.14%	108.4 ± 0.97%	94.54 ± 0.19%	101.9 ± 0.54%	105.8 ± 0.3%	103 ± 1.8%	107.7 ± 0.39%	105 ± 0.35%	98.871 ± 0.053%
CN1CCc2c(c3ccccc3n2Cc2ccc(C(=O)NO)cc2)C1 [Tubastatin A HCl]	73.7 ± 1.7%	91.6 ± 2.8%	85.5 ± 1%	90.1 ± 3.6%	82.6 ± 2.3%	75.4 ± 2.7%	101 ± 2.1%	102 ± 2.5%	101 ± 3.4%	100 ± 2.9%	98.48 ± 0.54%	90.6 ± 1.5%
Cn1c(N2CCCCS2(=O)=O)nc(C(=O)NCc2ccc(F)cc2)c(O)c1=O	104 ± 2.9%	106 ± 1.5%	106 ± 1.5%	102 ± 1.9%	108.8 ± 0.34%	99.97 ± 0.61%	99.8 ± 2.4%	105.9 ± 0.6%	101 ± 2.4%	101 ± 2.1%	100.8 ± 0.82%	100 ± 1.4%
Nc1ccn([C@@H]2O[C@H](CO)[C@@H](O)[C@@H]2O)c(=O)n1 [Cytarabine (Cytosar-U)]	88.2 ± 4%	93.49 ± 0.71%	96.2 ± 2.2%	89.35 ± 0.62%	74.5 ± 2.8%	49.4 ± 1.1%	115 ± 4.8%	106 ± 4.1%	110 ± 0.82%	105.2 ± 0.25%	88.313 ± 0.062%	38 ± 0.93%
CC(=O)O[C@H]1CC[C@@]2(C)C(=CC[C@@H]3[C@@H]2CC[C@]2(C)C(c4cccnc4)=CC[C@@H]32)C1 [Abiraterone Acetate (CB7630)]	103 ± 1.5%	108 ± 7%	102 ± 0.7%	97.3 ± 2.7%	103 ± 1.2%	94.6 ± 2.4%	106 ± 5.8%	104 ± 3.1%	111 ± 2.3%	111 ± 5.3%	105 ± 2%	102 ± 3.2%
NC(=O)[C@@H](CCC(F)(F)F)N(Cc1ccc(-c2ncon2)cc1F)S(=O)(=O)c1ccc(Cl)cc1	109.7 ± 0.27%	108 ± 2.7%	124 ± 2.7%	116.1 ± 0.31%	117 ± 2.9%	108 ± 2.9%	103 ± 1.2%	102 ± 1.3%	101.6 ± 0.3%	103.4 ± 0.95%	103.76 ± 0.01%	102 ± 1.9%
CO[C@H]1C[C@@H]2CC[C@@H](C)[C@@](O)(O2)C(=O)C(=O)N2CCCC[C@H]2C(=O)O[C@H]([C@H](C)C[C@@H]2CC[C@@H](OCCO)[C@H](OC)C2)CC(=O)[C@H](C)/C=C(\C)[C@@H](O)[C@@H](OC)C(=O)[C@H](C)C[C@H](C)/C=C/C=C/C=C/1C [Everolimus (RAD001)]	46.7 ± 2.2%	56.4 ± 1.5%	49.8 ± 4.2%	52.7 ± 3.3%	54.2 ± 3%	50.3 ± 3.7%	71.1 ± 3.2%	69.7 ± 1.3%	68.2 ± 1.6%	71.6 ± 2%	75.3 ± 2.6%	67.6 ± 0.97%
O=C(Nc1cccc(Cl)c1)Nc1ncc(CCNc2ncnc3ccsc23)s1 [SNS-314 Mesylate]	107 ± 3%	85.4 ± 1.4%	83.06 ± 0.37%	65.9 ± 0.75%	79.5 ± 4.8%	67.3 ± 1.1%	102.7 ± 0.28%	104 ± 1.1%	98.4 ± 1.1%	93.6 ± 1.6%	89.5 ± 1.7%	77.2 ± 2.1%
C[S+]([O-])c1ccc(-c2nc(-c3ccc(F)cc3)c(-c3ccncc3)[nH]2)cc1 (stereo not drawn)	112 ± 5%	108.1 ± 0.69%	98.1 ± 2.8%	102 ± 1.2%	111 ± 2%	110 ± 2.8%	101.3 ± 0.64%	98.42 ± 0.75%	98.6 ± 1.3%	99.1 ± 2%	100 ± 1.8%	98.1 ± 1.3%
CN1CC2c3ccccc3Oc3ccc(Cl)cc3C2C1 (stereo not drawn) [Asenapine maleate]	110 ± 1.5%	105.4 ± 0.74%	106.4 ± 0.12%	105 ± 5.3%	110 ± 3.4%	89.34 ± 0.58%	110 ± 0.8%	113 ± 3.3%	110.6 ± 0.71%	112 ± 5%	103 ± 3.5%	88.47 ± 0.57%
